Reference: publication PMC4160273 (Journal of the American Chemical Society, 2014)
Like-named read-outs stand apart in the source and are kept apart here.

Key:
endogenous RSK1 and RSK2 = assay: RSK1/2 occupancy in MDA-MB-231 cells by competitive labeling with BODIPY-FMK; type: cell-based; conditions: 0.1 and 1.0 μM, 2 h
[1] = thiol, cited from earlier work
RSK2 CTD = RSK2 CTD (Mus musculus, UniProt P18654); conditions: after 4 hours, guanidine

## Cc1ccc(-c2c(C=C(C#N)c3ccncc3)n(CCCO)c3ncnc(N)c23)cc1 [compound 17]
Endogenous RSK1 and RSK2
  Labeling of RSK1/2 by BODIPY-FMK in pretreated cells: less effective

## NCCS [cysteamine]
[1]; ref [36]
  pKa: 8.4

## COc1cc(-c2n[nH]c3ccc(C=C(C#N)n4cccn4)cc23)cc(OC)c1OC [S3]
RSK2 CTD
  % dissociation / recovered from RSK2 after unfolding: ~ 2%

## OCCS [BME, β-mercaptoethanol]
[1]; ref [34]
  pKa: 9.6
